Test results: PMC6591251, “Discovery of potent necroptosis inhibitors targeting RIPK1 kinase activity for the treatment of inflammatory disorder and cancer metastasis” (Cell Death & Disease, 2019)

Key:
Assay in all cases: RBC kinase panel
Assay type in all cases: biochemical
Conditions in all cases: ATP 10 μM, Data1, Data2
STK33 = target: T1, STK33 (Homo sapiens, UniProt Q9BYT3)
T1 construct: purchased Reaction Biology Corporation
Method in brief: (§1)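 Kinases from a 369-member human panel were incubated with 1 μM compound under 10 μM ATP, and every assay was done in duplicate.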

MNK1 = target: T2, MNK1 (Homo sapiens, UniProt Q9BUB5)
T2 construct: purchased Reaction Biology Corporation
Method in brief: as §1

STK25/YSK1 = target: T3, STK25/YSK1 (Homo sapiens, UniProt O00506)
T3 construct: purchased Reaction Biology Corporation
Method in brief: as §1

FGFR4 = target: T4, FGFR4 (Homo sapiens, UniProt P22455)
T4 construct: purchased Reaction Biology Corporation
Method in brief: as §1

PKCeta = target: T5, PKCeta (Homo sapiens, UniProt P24723)
T5 construct: purchased Reaction Biology Corporation
Method in brief: as §1

MEKK3 = target: T6, MEKK3 (Homo sapiens, UniProt Q99759)
T6 construct: purchased Reaction Biology Corporation
T6 sequence (Q99759 whole entry): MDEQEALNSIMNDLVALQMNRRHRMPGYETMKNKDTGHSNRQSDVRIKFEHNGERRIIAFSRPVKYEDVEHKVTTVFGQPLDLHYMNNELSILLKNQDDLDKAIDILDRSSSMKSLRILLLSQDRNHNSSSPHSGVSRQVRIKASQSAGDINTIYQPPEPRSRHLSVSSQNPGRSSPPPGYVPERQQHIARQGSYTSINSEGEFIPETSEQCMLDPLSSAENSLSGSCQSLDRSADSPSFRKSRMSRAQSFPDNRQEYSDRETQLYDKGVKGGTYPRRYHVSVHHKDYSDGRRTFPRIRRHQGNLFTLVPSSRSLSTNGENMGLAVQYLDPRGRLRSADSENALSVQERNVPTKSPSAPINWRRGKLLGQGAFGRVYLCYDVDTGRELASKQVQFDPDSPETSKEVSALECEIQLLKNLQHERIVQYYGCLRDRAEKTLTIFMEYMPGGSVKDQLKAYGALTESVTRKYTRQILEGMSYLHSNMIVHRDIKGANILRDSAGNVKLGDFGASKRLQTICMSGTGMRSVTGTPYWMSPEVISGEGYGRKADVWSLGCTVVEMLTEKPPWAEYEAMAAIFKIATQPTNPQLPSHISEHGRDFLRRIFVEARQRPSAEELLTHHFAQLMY
Method in brief: as §1

GRK4 = target: T7, GRK4 (Homo sapiens, UniProt P32298)
T7 construct: purchased Reaction Biology Corporation
Method in brief: as §1

ACK1 = target: T8, ACK1 (Homo sapiens, UniProt Q07912)
T8 construct: purchased Reaction Biology Corporation
Method in brief: as §1

CK2a = target: T9, CK2a (Homo sapiens, UniProt P68400)
T9 construct: purchased Reaction Biology Corporation
T9 sequence (P68400 whole entry): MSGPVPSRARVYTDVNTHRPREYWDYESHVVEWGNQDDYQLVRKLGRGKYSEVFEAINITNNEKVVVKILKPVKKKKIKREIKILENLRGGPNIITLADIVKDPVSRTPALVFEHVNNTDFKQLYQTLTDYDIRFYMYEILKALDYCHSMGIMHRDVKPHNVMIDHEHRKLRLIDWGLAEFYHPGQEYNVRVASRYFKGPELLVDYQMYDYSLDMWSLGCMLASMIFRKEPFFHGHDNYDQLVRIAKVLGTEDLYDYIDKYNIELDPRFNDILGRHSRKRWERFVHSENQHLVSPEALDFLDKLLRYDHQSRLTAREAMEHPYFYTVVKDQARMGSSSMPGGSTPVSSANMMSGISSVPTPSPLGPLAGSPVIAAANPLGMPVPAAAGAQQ
Method in brief: as §1

PKCzeta = target: T10, PKCzeta (Homo sapiens, UniProt Q05513)
T10 construct: purchased Reaction Biology Corporation
Method in brief: as §1

GRK6 = target: T11, GRK6 (Homo sapiens, UniProt P43250)
T11 construct: purchased Reaction Biology Corporation
Method in brief: as §1

MKK7 = target: T12, MKK7 (Homo sapiens, UniProt O14733)
T12 construct: purchased Reaction Biology Corporation
Method in brief: as §1

TSSK2 = target: T13, TSSK2 (Homo sapiens, UniProt Q96PF2)
T13 construct: purchased Reaction Biology Corporation
Method in brief: as §1

EPHA3 = target: T14, EPHA3 (Homo sapiens, UniProt P29320)
T14 construct: purchased Reaction Biology Corporation
Method in brief: as §1

MEKK2 = target: T15, MEKK2 (Homo sapiens, UniProt Q9Y2U5)
T15 construct: purchased Reaction Biology Corporation
Method in brief: as §1

PKCb1 = target: T16, PKCb1 (Homo sapiens, UniProt P05771)
T16 construct: purchased Reaction Biology Corporation
Method in brief: as §1

ALK1/ACVRL1 = target: T17, ALK1/ACVRL1 (Homo sapiens, UniProt P37023)
T17 construct: purchased Reaction Biology Corporation
Method in brief: as §1

PIM1 = target: T18, PIM1 (Homo sapiens, UniProt P11309)
T18 construct: purchased Reaction Biology Corporation
Method in brief: as §1

IRAK4 = target: T19, IRAK4 (Homo sapiens, UniProt Q9NWZ3)
T19 construct: purchased Reaction Biology Corporation
T19 sequence (Q9NWZ3 whole entry): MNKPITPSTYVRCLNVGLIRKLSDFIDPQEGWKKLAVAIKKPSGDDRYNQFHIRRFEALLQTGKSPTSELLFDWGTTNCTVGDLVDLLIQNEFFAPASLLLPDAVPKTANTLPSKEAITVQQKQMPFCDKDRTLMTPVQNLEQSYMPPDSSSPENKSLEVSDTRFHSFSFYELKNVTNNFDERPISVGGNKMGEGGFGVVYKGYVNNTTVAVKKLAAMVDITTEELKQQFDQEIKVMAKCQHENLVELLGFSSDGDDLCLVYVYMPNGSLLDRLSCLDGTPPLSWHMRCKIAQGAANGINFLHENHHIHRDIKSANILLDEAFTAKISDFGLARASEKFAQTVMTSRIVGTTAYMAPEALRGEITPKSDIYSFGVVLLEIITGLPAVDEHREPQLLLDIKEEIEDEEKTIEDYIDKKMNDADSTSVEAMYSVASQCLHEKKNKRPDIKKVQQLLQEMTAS
Method in brief: as §1

AKT2 = target: T20, AKT2 (Homo sapiens, UniProt P31751)
T20 construct: purchased Reaction Biology Corporation
Method in brief: as §1

ABL2/ARG = target: T21, ABL2/ARG (Homo sapiens, UniProt P42684)
T21 construct: purchased Reaction Biology Corporation
Method in brief: as §1

PKAcb = target: T22, PKAcb (Homo sapiens, UniProt P22694)
T22 construct: purchased Reaction Biology Corporation
Method in brief: as §1

LYN = target: T23, LYN (Homo sapiens, UniProt P07948)
T23 construct: purchased Reaction Biology Corporation
Method in brief: as §1

OSR1/OXSR1 = target: T24, OSR1/OXSR1 (Homo sapiens, UniProt O95747)
T24 construct: purchased Reaction Biology Corporation
T24 sequence (O95747 whole entry): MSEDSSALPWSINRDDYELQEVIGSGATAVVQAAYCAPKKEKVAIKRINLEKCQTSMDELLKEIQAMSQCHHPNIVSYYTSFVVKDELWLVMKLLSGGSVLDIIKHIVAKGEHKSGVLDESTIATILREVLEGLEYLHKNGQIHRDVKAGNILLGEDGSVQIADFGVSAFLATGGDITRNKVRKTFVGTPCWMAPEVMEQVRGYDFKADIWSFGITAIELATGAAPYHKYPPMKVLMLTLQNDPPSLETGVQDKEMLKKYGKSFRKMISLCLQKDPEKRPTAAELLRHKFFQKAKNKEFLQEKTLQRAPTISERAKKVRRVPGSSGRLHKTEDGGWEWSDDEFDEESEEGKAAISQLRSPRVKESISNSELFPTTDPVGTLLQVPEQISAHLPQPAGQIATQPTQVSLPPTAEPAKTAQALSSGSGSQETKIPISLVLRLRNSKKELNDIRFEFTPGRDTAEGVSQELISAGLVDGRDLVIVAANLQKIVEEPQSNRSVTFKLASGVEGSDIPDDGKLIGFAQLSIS
Method in brief: as §1

EGFR = target: T25, EGFR (Homo sapiens, UniProt P00533)
T25 construct: purchased Reaction Biology Corporation
Method in brief: as §1

MLCK2/MYLK2 = target: T26, MLCK2/MYLK2 (Homo sapiens, UniProt Q9H1R3)
T26 construct: purchased Reaction Biology Corporation
Method in brief: as §1

GSK3a = target: T27, GSK3a (Homo sapiens, UniProt P49840)
T27 construct: purchased Reaction Biology Corporation
T27 sequence (P49840 whole entry): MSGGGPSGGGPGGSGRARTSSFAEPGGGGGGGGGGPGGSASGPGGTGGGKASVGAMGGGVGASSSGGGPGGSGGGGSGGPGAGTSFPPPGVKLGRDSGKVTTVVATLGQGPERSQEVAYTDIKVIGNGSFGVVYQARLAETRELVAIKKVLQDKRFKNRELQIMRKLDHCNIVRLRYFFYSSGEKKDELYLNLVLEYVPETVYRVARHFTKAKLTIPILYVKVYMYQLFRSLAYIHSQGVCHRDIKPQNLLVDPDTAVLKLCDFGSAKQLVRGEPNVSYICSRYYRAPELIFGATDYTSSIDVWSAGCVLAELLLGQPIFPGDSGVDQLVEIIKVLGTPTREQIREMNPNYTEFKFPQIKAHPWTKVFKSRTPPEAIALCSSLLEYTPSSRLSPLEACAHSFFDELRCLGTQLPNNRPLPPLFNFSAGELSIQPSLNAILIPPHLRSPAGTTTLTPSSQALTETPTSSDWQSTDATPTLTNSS
Method in brief: as §1

ALK = target: T28, ALK (Homo sapiens, UniProt Q9UM73)
T28 construct: purchased Reaction Biology Corporation
Method in brief: as §1

FGFR1 = target: T29, FGFR1 (Homo sapiens, UniProt P11362)
T29 construct: purchased Reaction Biology Corporation
T29 sequence (P11362 22-822): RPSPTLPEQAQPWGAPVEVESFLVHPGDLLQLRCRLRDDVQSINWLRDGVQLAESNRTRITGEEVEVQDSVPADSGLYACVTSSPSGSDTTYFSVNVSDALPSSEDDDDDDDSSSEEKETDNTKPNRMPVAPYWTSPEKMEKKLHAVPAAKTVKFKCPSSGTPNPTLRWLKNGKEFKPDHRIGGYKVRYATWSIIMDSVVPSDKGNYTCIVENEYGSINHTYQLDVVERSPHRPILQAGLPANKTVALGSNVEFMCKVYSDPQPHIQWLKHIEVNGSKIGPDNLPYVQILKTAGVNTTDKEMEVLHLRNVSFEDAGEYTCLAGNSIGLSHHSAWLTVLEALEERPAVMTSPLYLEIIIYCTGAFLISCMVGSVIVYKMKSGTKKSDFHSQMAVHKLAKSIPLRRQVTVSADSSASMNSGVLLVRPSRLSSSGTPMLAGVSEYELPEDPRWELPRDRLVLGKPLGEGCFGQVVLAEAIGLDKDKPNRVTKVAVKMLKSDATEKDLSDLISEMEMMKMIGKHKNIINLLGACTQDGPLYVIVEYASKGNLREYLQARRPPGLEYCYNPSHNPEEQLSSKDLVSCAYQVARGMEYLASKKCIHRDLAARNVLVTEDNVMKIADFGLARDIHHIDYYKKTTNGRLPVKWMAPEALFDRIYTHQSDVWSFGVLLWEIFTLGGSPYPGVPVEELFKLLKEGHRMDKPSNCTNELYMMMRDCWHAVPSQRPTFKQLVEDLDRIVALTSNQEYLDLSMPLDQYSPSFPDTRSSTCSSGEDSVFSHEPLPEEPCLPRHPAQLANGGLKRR
Method in brief: as §1

GRK7 = target: T30, GRK7 (Homo sapiens, UniProt Q8WTQ7)
T30 construct: purchased Reaction Biology Corporation
T30 sequence (Q8WTQ7 whole entry): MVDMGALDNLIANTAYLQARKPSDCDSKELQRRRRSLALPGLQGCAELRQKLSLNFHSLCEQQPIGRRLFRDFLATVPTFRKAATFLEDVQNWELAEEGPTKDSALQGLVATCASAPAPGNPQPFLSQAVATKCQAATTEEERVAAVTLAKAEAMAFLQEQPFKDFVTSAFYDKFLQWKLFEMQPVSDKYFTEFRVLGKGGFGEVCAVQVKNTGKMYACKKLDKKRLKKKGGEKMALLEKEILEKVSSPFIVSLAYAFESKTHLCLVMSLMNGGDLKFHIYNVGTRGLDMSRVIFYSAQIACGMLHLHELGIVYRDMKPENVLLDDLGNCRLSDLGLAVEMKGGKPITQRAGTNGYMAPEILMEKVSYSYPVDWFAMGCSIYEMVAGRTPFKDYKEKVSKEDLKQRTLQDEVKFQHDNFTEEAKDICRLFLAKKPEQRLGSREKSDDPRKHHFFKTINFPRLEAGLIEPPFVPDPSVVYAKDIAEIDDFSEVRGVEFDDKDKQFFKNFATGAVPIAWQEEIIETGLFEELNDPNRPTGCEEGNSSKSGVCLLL
Method in brief: as §1

MYO3b = target: T31, MYO3b (Homo sapiens, UniProt Q8WXR4)
T31 construct: purchased Reaction Biology Corporation
Method in brief: as §1

ALK6/BMPR1B = target: T32, ALK6/BMPR1B (Homo sapiens, UniProt O00238)
T32 construct: purchased Reaction Biology Corporation
T32 sequence (O00238 14-502): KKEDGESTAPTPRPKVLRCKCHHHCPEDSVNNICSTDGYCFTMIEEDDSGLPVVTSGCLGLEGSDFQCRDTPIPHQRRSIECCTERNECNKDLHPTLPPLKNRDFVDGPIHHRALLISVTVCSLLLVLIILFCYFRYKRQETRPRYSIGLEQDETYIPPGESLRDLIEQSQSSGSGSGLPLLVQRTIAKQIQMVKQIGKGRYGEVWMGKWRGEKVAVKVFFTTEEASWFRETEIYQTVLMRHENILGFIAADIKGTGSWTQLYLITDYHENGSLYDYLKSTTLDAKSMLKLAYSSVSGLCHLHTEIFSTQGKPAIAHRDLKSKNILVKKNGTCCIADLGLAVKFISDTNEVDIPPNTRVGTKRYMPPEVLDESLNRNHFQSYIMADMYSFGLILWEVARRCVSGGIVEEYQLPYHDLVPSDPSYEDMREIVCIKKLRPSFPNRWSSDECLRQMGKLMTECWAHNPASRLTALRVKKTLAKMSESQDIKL
Method in brief: as §1

PKCd = target: T33, PKCd (Homo sapiens, UniProt Q05655)
T33 construct: purchased Reaction Biology Corporation
T33 sequence (Q05655 whole entry): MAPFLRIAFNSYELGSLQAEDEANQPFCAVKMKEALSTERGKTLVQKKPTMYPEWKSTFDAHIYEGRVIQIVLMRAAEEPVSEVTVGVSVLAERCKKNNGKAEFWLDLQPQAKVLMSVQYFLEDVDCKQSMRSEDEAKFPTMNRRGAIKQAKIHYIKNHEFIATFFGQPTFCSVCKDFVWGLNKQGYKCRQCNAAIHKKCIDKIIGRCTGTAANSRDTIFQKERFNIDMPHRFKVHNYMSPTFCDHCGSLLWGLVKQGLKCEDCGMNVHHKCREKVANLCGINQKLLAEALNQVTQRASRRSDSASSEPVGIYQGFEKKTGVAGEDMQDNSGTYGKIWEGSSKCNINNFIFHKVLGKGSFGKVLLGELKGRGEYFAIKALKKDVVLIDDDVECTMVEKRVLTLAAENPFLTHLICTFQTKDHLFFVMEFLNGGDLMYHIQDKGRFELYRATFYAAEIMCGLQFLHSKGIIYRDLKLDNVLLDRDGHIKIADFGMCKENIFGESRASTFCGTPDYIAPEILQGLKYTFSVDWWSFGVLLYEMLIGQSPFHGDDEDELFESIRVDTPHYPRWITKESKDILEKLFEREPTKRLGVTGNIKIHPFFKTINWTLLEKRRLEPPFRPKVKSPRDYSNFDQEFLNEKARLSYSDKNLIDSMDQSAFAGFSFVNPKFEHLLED
Method in brief: as §1

Q: Which Activity% (STK33; 1 μM) does the source give for `CC(=O)Nc1nc2ccc(-c3cnc(C)c(NC(=O)OC4CCCCC4)c3)cc2s1` [PK68, cyclohexyl (5-(2-acetamidobenzo[d]thiazol-6-yl)-2-methylpyridin-3-yl)carbamate] here?
A: Its Activity% is 91.58%.

Q: What about the activity at 1 µM (STK33) of the same molecule?
A: The activity at 1 µM was 91.6%.

Q: What about the Activity% (MNK1; 1 μM) of the same molecule?
A: The Activity% was 99.13%.

Q: What about the activity at 1 µM (MNK1) of the same molecule?
A: The activity at 1 µM was 100%.

Q: What about the Activity% (STK25/YSK1; 1 μM) of the same molecule?
A: The Activity% was 104.63%.

Q: What about the activity at 1 µM (STK25/YSK1) of the same molecule?
A: Its activity at 1 µM is 110%.

Q: And the Activity% (FGFR4; 1 μM)?
A: Its Activity% is 89.46%.

Q: And the activity at 1 µM (FGFR4)?
A: Its activity at 1 µM is 89.9%.

Q: And the Activity% (PKCeta; 1 μM)?
A: Its Activity% is 90.40%.

Q: And the activity at 1 µM (PKCeta)?
A: The activity at 1 µM was 92.8%.

Q: And the Activity% (MEKK3; 1 μM)?
A: The Activity% was 111.45%.

Q: What about the activity at 1 µM (MEKK3) of the same molecule?
A: Its activity at 1 µM is 115%.

Q: And the Activity% (GRK4; 1 μM)?
A: The Activity% was 103.31%.

Q: And the activity at 1 µM (GRK4)?
A: The activity at 1 µM was 107%.

Q: What about the Activity% (ACK1; 1 μM) of the same molecule?
A: The Activity% was 84.41%.

Q: What about the activity at 1 µM (ACK1) of the same molecule?
A: Its activity at 1 µM is 85.5%.

Q: What about the Activity% (CK2a; 1 μM) of the same molecule?
A: Its Activity% is 90.49%.

Q: And the activity at 1 µM (CK2a)?
A: Its activity at 1 µM is 95.2%.

Q: What about the Activity% (PKCzeta; 1 μM) of the same molecule?
A: The Activity% was 102.04%.

Q: What about the activity at 1 µM (PKCzeta) of the same molecule?
A: Its activity at 1 µM is 103%.

Q: What about the Activity% (GRK6; 1 μM) of the same molecule?
A: Its Activity% is 99.89%.

Q: What about the activity at 1 µM (GRK6) of the same molecule?
A: The activity at 1 µM was 102%.

Q: And the Activity% (MKK7; 1 μM)?
A: Its Activity% is 93.03%.

Q: And the activity at 1 µM (MKK7)?
A: The activity at 1 µM was 98%.

Q: And the Activity% (TSSK2; 1 μM)?
A: Its Activity% is 97.17%.

Q: What about the activity at 1 µM (TSSK2) of the same molecule?
A: The activity at 1 µM was 98.1%.

Q: And the Activity% (EPHA3; 1 μM)?
A: Its Activity% is 98.26%.

Q: What about the activity at 1 µM (EPHA3) of the same molecule?
A: Its activity at 1 µM is 102%.

Q: And the Activity% (MEKK2; 1 μM)?
A: Its Activity% is 85.76%.

Q: And the activity at 1 µM (MEKK2)?
A: The activity at 1 µM was 89.8%.

Q: And the Activity% (PKCb1; 1 μM)?
A: Its Activity% is 84.55%.

Q: And the activity at 1 µM (PKCb1)?
A: Its activity at 1 µM is 84.8%.

Q: What about the Activity% (ALK1/ACVRL1; 1 μM) of the same molecule?
A: The Activity% was 91.76%.

Q: What about the activity at 1 µM (ALK1/ACVRL1) of the same molecule?
A: The activity at 1 µM was 95.2%.

Q: What about the Activity% (PIM1; 1 μM) of the same molecule?
A: Its Activity% is 100.16%.

Q: And the activity at 1 µM (PIM1)?
A: Its activity at 1 µM is 102%.

Q: What about the Activity% (IRAK4; 1 μM) of the same molecule?
A: The Activity% was 85.85%.

Q: And the activity at 1 µM (IRAK4)?
A: The activity at 1 µM was 86.9%.

Q: And the Activity% (AKT2; 1 μM)?
A: The Activity% was 96.89%.

Q: And the activity at 1 µM (AKT2)?
A: Its activity at 1 µM is 97.5%.

Q: And the Activity% (ABL2/ARG; 1 μM)?
A: Its Activity% is 91.15%.

Q: What about the activity at 1 µM (ABL2/ARG) of the same molecule?
A: The activity at 1 µM was 91.9%.

Q: And the Activity% (PKAcb; 1 μM)?
A: The Activity% was 100.88%.

Q: What about the activity at 1 µM (PKAcb) of the same molecule?
A: The activity at 1 µM was 103%.

Q: And the Activity% (LYN; 1 μM)?
A: Its Activity% is 92.90%.

Q: What about the activity at 1 µM (LYN) of the same molecule?
A: Its activity at 1 µM is 95.3%.

Q: What about the Activity% (OSR1/OXSR1; 1 μM) of the same molecule?
A: Its Activity% is 102.40%.

Q: And the activity at 1 µM (OSR1/OXSR1)?
A: Its activity at 1 µM is 105%.

Q: What about the Activity% (EGFR; 1 μM) of the same molecule?
A: Its Activity% is 99.30%.

Q: What about the activity at 1 µM (EGFR) of the same molecule?
A: The activity at 1 µM was 99.7%.

Q: What about the Activity% (MLCK2/MYLK2; 1 μM) of the same molecule?
A: Its Activity% is 50.92%.

Q: And the activity at 1 µM (MLCK2/MYLK2)?
A: Its activity at 1 µM is 51.3%.

Q: What about the Activity% (GSK3a; 1 μM) of the same molecule?
A: The Activity% was 101.33%.

Q: What about the activity at 1 µM (GSK3a) of the same molecule?
A: The activity at 1 µM was 102%.

Q: What about the Activity% (ALK; 1 μM) of the same molecule?
A: The Activity% was 94.03%.

Q: And the activity at 1 µM (ALK)?
A: Its activity at 1 µM is 96.1%.

Q: And the Activity% (FGFR1; 1 μM)?
A: The Activity% was 104.83%.

Q: And the activity at 1 µM (FGFR1)?
A: Its activity at 1 µM is 105%.

Q: What about the Activity% (GRK7; 1 μM) of the same molecule?
A: The Activity% was 95.94%.

Q: What about the activity at 1 µM (GRK7) of the same molecule?
A: Its activity at 1 µM is 96.5%.

Q: And the Activity% (MYO3b; 1 μM)?
A: The Activity% was 99.36%.

Q: And the activity at 1 µM (MYO3b)?
A: Its activity at 1 µM is 99.9%.

Q: And the Activity% (ALK6/BMPR1B; 1 μM)?
A: Its Activity% is 91.83%.

Q: What about the activity at 1 µM (ALK6/BMPR1B) of the same molecule?
A: The activity at 1 µM was 92.5%.

Q: And the Activity% (PKCd; 1 μM)?
A: Its Activity% is 100.58%.

Q: What about the activity at 1 µM (PKCd) of the same molecule?
A: Its activity at 1 µM is 101%.
